Converted amounts (≈) assume the structure as drawn. Read-outs that look alike come from different tables or passages of the source.
Experiments:
Assay in all cases: minimum inhibitory concentration (MIC), antimicrobial activity
Type in all cases: cell-based
B. Subtilis NRRL B-558 = tested on: B. Subtilis NRRL B-558
Description: (§1) Concerning the antimicrobial activity of the compounds of this invention of the formula (I), minimum effective inhibitory concentrations (MIC) of the compounds are shown in the following Table.

Sal.entiritidis 1891 = tested on: Sal.entiritidis 1891
Description: as §1

Pseud. aeruginosa A3 = tested on: Pseud. aeruginosa A3
Description: as §1

M. luteus PCI 1001 = tested on: M. luteus PCI 1001
Description: as §1

Staph. aureus Smith = tested on: Staph. aureus Smith
Description: as §1

Kl. pnueroniae PCI-602 = tested on: Kl. pnueroniae PCI-602
Description: as §1

[1] = Bacillus subtilis, NRRLB558, read-out: MIC
[2] = Pseudomonas aeruginosa, A3, Pseud. aeruginosa A3, read-out: MIC
[3] = Micrococcus luteus, PCI1001, read-out: MIC
[4] = Staphylococcus aureus, read-out: MIC

Row | Compound | MIC (B. Subtilis NRRL B-558) [mg/L] | MIC (Sal.entiritidis 1891) [mg/L] | MIC (Pseud. aeruginosa A3; Pseud. aeruginosa A3) [mg/L] | MIC (M. luteus PCI 1001) [mg/L] | MIC (Staph. aureus Smith) [mg/L] | MIC (Kl. pnueroniae PCI-602) [mg/L] | MIC (B. Subtilis NRRL B-558; [1]) [mg/L] | MIC (Sal.entiritidis 1891; read-out: MIC) [mg/L] | MIC (Pseud. aeruginosa A3; [2]) [mg/L] | MIC (M. luteus PCI 1001; [3]) [mg/L] | MIC (Staph. aureus Smith; [4]) [mg/L] | MIC (Kl. pnueroniae PCI-602; read-out: MIC) [mg/L]
1 | CC[C@H]1OC(=O)C[C@@H](O)[C@H](C)[C@@H](O[C@@H]2O[C@H](C)C[C@H](N(C)C)[C@H]2O)[C@@H](CC=O)C[C@@H](C)C(=O)/C=C/C(C)=C/[C@@H]1CO [DT, 4'deoxy mycaminosyl/ tylonolide, reference compound] | 1.56 (≈ 2.68 µM) | 1.56 (≈ 2.68 µM) | 12.5 (≈ 21.5 µM) | <0.2 | 0.39 (≈ 0.67 µM) | 1.56 (≈ 2.68 µM) |  |  |  |  |  | 
2 | CCC(O)C1/C=C(C)/C=C/C(=O)C(C)CC(CC=O)C(OC2OC(C)C(O)C(N(C)C)C2O)C(C)C(O)CC(=O)OC1CC (single isomer, unassigned) [4(2), 23-C-ethylmycaminosyl tylonolide] |  |  |  |  |  |  | 0.39 (≈ 0.623 µM) | 3.12 (≈ 4.99 µM) | 6.25 (≈ 9.99 µM) | < 0.2 | 0.78 (≈ 1.25 µM) | 6.25 (≈ 9.99 µM)
3 | CCC1OC(=O)CC(O)C(C)C(OC2OC(C)CC(N(C)C)C2O)C(CC=O)CC(C)C(=O)/C=C/C(C)=C/C1C(C)O (single isomer, unassigned) [Example 6, 4'-deoxy-23-C-methymycaminosyl tylonolide] | 0.39 (≈ 0.655 µM) | 3.12 (≈ 5.24 µM) | 12.5 (≈ 21 µM) | <0.2 | 0.39 (≈ 0.655 µM) | 3.12 (≈ 5.24 µM) |  |  |  |  |  | 
4 | C=CC(O)C1/C=C(C)/C=C/C(=O)C(C)CC(CC=O)C(OC2OC(C)CC(N(C)C)C2O)C(C)C(O)CC(=O)OC1CC (single isomer, unassigned) [10"F, 4'-deoxy-23-C-vinylmycaminosyl tylonolide] |  |  |  |  |  |  | 0.39 (≈ 0.642 µM) | 3.12 (≈ 5.13 µM) |  | < 0.2 | 0.78 (≈ 1.28 µM) | 3.12 (≈ 5.13 µM)
5 | CCC1OC(=O)CC(O)C(C)C(OC2OC(C)CC(N(C)C)C2O)C(CC=O)CC(C)C(=O)/C=C/C(C)=C/C1C(C)O (single isomer, unassigned) [Example 5(2), 4'-deoxy-23-C-methylmycaminosyl tylonolide] |  |  |  |  |  |  | 0.39 (≈ 0.655 µM) | 3.12 (≈ 5.24 µM) | 25 (≈ 42 µM) | < 0.2 | 0.39 (≈ 0.655 µM) | 1.56 (≈ 2.62 µM)
6 | C#CC(O)C1/C=C(C)/C=C/C(=O)C(C)CC(CC=O)C(OC2OC(C)CC(N(C)C)C2O)C(C)C(O)CC(=O)OC1CC (single isomer, unassigned) [12"F, 4'-deoxy-23-C-ethinylmycaminosyl tylonolide] |  |  |  |  |  |  | 0.78 (≈ 1.29 µM) | 3.12 (≈ 5.15 µM) | 3.12 (≈ 5.15 µM) | < 0.2 | 0.78 (≈ 1.29 µM) | 1.56 (≈ 2.58 µM)
7 | CCC1OC(=O)CC(O)C(C)C(OC2OC(C)C(O)C(N(C)C)C2O)C(CC=O)CC(C)C(=O)/C=C/C(C)=C/C1C(C)O (single isomer, unassigned) [1(3), 23-C-methylmycaminosyl tylonolide] |  |  |  |  |  |  | 0.78 (≈ 1.27 µM) | 3.12 (≈ 5.1 µM) | 12.5 (≈ 20.4 µM) | < 0.2 | 1.56 (≈ 2.55 µM) | 3.12 (≈ 5.1 µM)
8 | C#CC(O)C1C=C(C)C=CC(=O)C(C)CC(CC=O)C(OC2OC(C)C(O)C(N(C)C)C2O)C(C)C(O)CC(=O)OC1CC (centres unmarked) [11"F, 23-C-ethinylmycaminosyl tylonolide] | 3.12 (≈ 5.02 µM) | 3.12 (≈ 5.02 µM) | 6.25 (≈ 10.1 µM) | <0.2 | 1.56 (≈ 2.51 µM) | 3.12 (≈ 5.02 µM) |  |  |  |  |  | 
9 | C=CCC(O)C1/C=C(C)/C=C/C(=O)C(C)CC(CC=O)C(OC2OC(C)C(O)C(N(C)C)C2O)C(C)C(O)CC(=O)OC1CC (single isomer, unassigned) [8"F, 23-C-(2-propenyl)mycaminosyl tylonolide] |  |  |  |  |  |  | 0.39 (≈ 0.611 µM) | 3.12 (≈ 4.89 µM) | 6.25 (≈ 9.8 µM) | < 0.2 | < 0.2 | 3.12 (≈ 4.89 µM)
10 | 23-C-methylmycaminosyl tylonolide diethylacetal [2(2)] | 0.78 | 3.12 | 12.5 | <0.2 | 1.56 | 3.12 |  |  |  |  |  | 
11 | CC[C@H]1OC(=O)C[C@@H](O)[C@H](C)[C@@H](O[C@@H]2O[C@H](C)[C@@H](O)[C@H](N(C)C)[C@H]2O)[C@@H](CC=O)C[C@@H](C)C(=O)/C=C/C(C)=C/[C@@H]1CO [MT, mycaminosyl tylonolide] | 3.12 (≈ 5.22 µM) | 3.12 (≈ 5.22 µM) | 25 (≈ 41.8 µM) | <0.2 | 1.56 (≈ 2.61 µM) | 3.12 (≈ 5.22 µM) |  |  |  |  |  | 

— EP0159881A2, “23-C-substituted mycaminosyl tylonolide” (ZAIDAN HOJIN BISEIBUTSU KAGAKU KENKYU KAI, priority 1984, dated 1985)
